Laboratory results from US10765616B2, “Oral formulation of polyglucosamine derivatives in combination with a non-fermentable sugar” (SYNEDGEN, INC., priority 2013, dated 2020).

Key:
S. mutans biofilms [1] = experiment: Comparative biofilm reduction study of oral rinses and active ingredients (MBEC pegs); type: cell-based, Streptococcus mutans; settings: 72 h S. mutans biofilms, treated 2 minutes twice (6-hour interval), vs water control
Experimental: Biofilms of S. mutans were grown on hydroxyapatite-coated pegs according to MBEC Assay™ methods for 72 hours, and then treated with the oral rinses or a water control. The corresponding active ingredients were also evaluated. The biofilms were exposed for 2-minutes, twice in a 6-hour interval to evaluate biofilm removal. Following treatment, biofilms were rinsed, fixed, and stained with 0.4% Crystal Violet, and remaining biofilm was quantitated via CFU or OD595 (Beenken and Smeltzer, 2003). Biofilms were analyzed in triplicate in at least 3 independent assays. Ratios were averaged from all assays and the percent biofilm reduced and standard error compared to water control is shown.

S. mutans biofilms [2] = experiment: MBEC peg biofilm biomass reduction assay of active ingredients (twice daily, OD595); type: cell-based, Streptococcus mutans; settings: 2 minutes, 8-hour interval, 32 μg/mL PAAG, 1.5% hydrogen peroxide, alcohol, lactoferrin, chlorhexidine
Experimental: The S. mutans biofilms were grown according to MBEC™ for High-throughput Screening methods (Innovotech) on a hydroxyapatite-coated peg lid placed in trough containing BHI media supplemented with 1% sucrose rocking for 72 hours. The pegs were treated twice daily with PAAG (30% functionalized, 86 kD) active ingredients (FIG. 9) at 8-hour intervals for 2-minutes. The biofilms were rinsed in PBS, and the pegs were removed and placed into 200 μl 95% ethanol each for 2 minutes to fix the biofilms. The MBEC-HTP biofilms were stained with 150 μl of 3% Crystal Violet dye each for 2 minutes, and rinsed five times with PBS. It was noted that chlorhexidine appears to “fix” the biofilm to the pegs. The bacteria may or may not be viable because OD measured biofilm biomass, not viable CFUs. The stained and rinsed MBEC-HTP biofilms were then placed in 150 μL ethanol for 1-minute to remove the dye/biofilm. Then 100 μL of the ethanol and dyed biofilm suspension was placed into a 96-well plate and the OD595 was measured to quantify the remaining stained biofilm biomass.

A431 epithelial cells = tested on: A431 epithelial cells
Experimental: Human epithelial cell monolayers of A431 (ATCC CRL-1555) were seeded in tissue culture treated 96-well plates at a density of 2×10^4 cells/well in DMEM media supplemented with 10% FBS, 1% Penicillin-Streptomycin, and 1% Amphotericin B. Seeded cells were incubated at 37° C. with 5% CO2 for 48 hours. The media was removed and replaced with serum-free, antimicrobial-free media and rinsed one time for 30 seconds with PAAG Oral Formulation H, other oral products (Biotene, Corsodyl, Peroxyl, or Listerine), 32 μg/mL PAAG (30% functionalized, 86 kDa) and other active ingredients (0.029% lactoferrin, 0.2% chlorhexidine gluconate, 1.5% hydrogen peroxide, or 20% alcohol). Epithelial cell viability was determined by ATPLite Luminescence ATP Detection Assay System (PerkinElmer). Testing was done in duplicate.
Epithelial cell viability was compared between PAAG and other oral active ingredients and oral rinse products. Human epithelial cell monolayers were rinsed once for 30 seconds with each treatment. Following treatment, the epithelial cells were evaluated with ATP LITE Luminecence assay that measured viability via ATP. The data was normalized to untreated cells to compare percent survival (FIG. 4). […] The cells were rinsed once with PAAG Oral Formulation H, other oral rinse products (Biotene, Corsodyl, Peroxyl, or Listerine), oral products active ingredients (0.0032% PAAG, 0.029% lactoferrin (LF), 0.2% chlorhexidine (CHG), 1.5% hydrogen peroxide, or 20% alcohol). PAAG Oral Formulation H contains sorbitol (17.5%), glycerin (10%), xylitol (2.5%), polysorbate 20 (1.5%), peppermint oil (0.2%), benzoic acid (0.3%), sodium fluoride (0.5%), and PAAG (0.0032%). Epithelial cell viability was determined by ATPLite Luminescence ATP Detection Assay System (Perkin Elmer) and compared to media rinsed cells.

S. mutans = experiment: PAAG and sorbitol combination bactericidal assay (viable plate counts); type: cell-based, Streptococcus mutans; settings: sorbitol 0-25% w/v, 30 minutes
Experimental: A range of sorbitol concentrations (0-25% w/v) was mixed with a range of PAAG concentrations (4-32 μg/mL, 86 kDa, 30% functionalized). S. mutans was exposed to each for 30 minutes before being neutralized with D/E neutralization broth, then diluted and plated for measurement of viable plate counts (CFU).

[3] = active ingredients at the concentration printed in the row or sentence

| Molecule | Percent (%) Biomass Reduced (S. mutans biofilms [1]; [3]) | reduction in S. mutans biofilm biomass compared to water control (S. mutans biofilms [2]) | epithelial cell viability (A431 epithelial cells) | other results |
| --- | --- | --- | --- | --- |
| [H]/N=C(\N/C(=N/[H])NCCCCCCNC(=N)NC(=N)Nc1ccc(Cl)cc1)Nc1ccc(Cl)cc1 [Chlorhexidine, chlorhexidine gluconate] | 17.1 ± 4.5% | did not significantly reduce | – | Percent (%) Biomass Reduced (S. mutans biofilms [1]; active ingredients at the concentration printed in the row or sentence, listed as Chlorhexidine gluconate): 17.1±4.5% |
| OO [hydrogen peroxide] | 36.9±3.8% | significant reduction | maintain epithelial cell viability | Percent (%) Biomass Reduced (S. mutans biofilms [1]; active ingredients at the concentration given, listed as H2O2): 36.9 ± 3.8% |
| OC[C@@H](O)[C@@H](O)[C@H](O)[C@@H](O)CO [sorbitol] | – | – | – | effect of sorbitol alone on bacterial viability (S. mutans): did not affect bacterial viability |
| poly (acetyl, arginyl) glucosamine [PAAG] | – | – | maintain epithelial cell viability | cytotoxicity to epithelial cells compared to other oral rinse products (A431 epithelial cells): least cytotoxic |
| CCO [Alcohol, alcohol] | 39.9 ± 3.9% | significant reduction | – | Percent (%) Biomass Reduced (S. mutans biofilms [1]; active ingredients at the concentration printed in the row or sentence, listed as alcohol): 39.9±3.9% |
